Measurements taken from article PMC4358773, “Highly specific ubiquitin-competing molecules effectively promote frataxin accumulation and partially rescue the aconitase defect in Friedreich ataxia cells” (Neurobiology of Disease, 2015).

Molecular target: T1, frataxin precursor (aa 1-210) (Homo sapiens, UniProt Q16595)
T1 construct: gene FXN; full-length precursor, aa 1-210, recombinant, expressed and purified by GenScript
T1 sequence (Q16595 1-210): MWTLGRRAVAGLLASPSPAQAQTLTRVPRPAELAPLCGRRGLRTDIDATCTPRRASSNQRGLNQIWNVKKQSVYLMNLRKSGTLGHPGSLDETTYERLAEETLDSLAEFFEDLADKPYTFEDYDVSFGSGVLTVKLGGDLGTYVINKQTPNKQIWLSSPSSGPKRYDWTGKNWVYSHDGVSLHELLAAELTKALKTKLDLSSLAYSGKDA
Experiment: intrinsic Trp fluorescence quenching, hyperbolic isotherm
Settings: 20 °C; 2 μM protein; ligand 0.5-25 μM; half-saturation binding constant; read-out: L1/2

Row | Compound | Kd [nM]
1 | C/C(=N\NC(=O)c1ccccc1)c1ccc2c(c1)Nc1ccccc1S2 [UCM108] | 2300 ± 300
2 | C/C(=N\NC(=O)c1ccc(C)cc1C)c1ccc2c(c1)Nc1ccccc1S2 [UCM53] | 2900 ± 300
